Results on one compound are retold here after US20230310399A1, “COMBINATORIAL THERAPEUTIC SYSTEMS AND METHODS THAT INCLUDE SYSTEMIC, CENTRALLY AND PERIPHERALLY ACTING ANALGESICS” (COGNIFISENSE, INC., priority 2020, published 2023).

This test concerns patient's amount of pain. Briefly: Potential patient responses to combinatorial therapy: amount of pain over time (FIGS. 5A-5C). It counts as in vivo, patients. The settings on record: combinatorial therapeutic system with VRNT; potential individual patient responses. From the text: FIGS. 5A-5C illustrate exemplary graphs of potential effects of combinatorial therapeutic systems/methods employing oliceridine and VRNT on a patient's amount of pain over time; and
The synergistic effects of the disclosed combinatorial therapeutic systems/methods can be exemplified in a plurality of responses. For example, FIGS. 5A-5C illustrate a combinatorial therapy using oliceridine (as the systemic, centrally and peripherally acting analgesic) and VRNT (as the artificial sensory experience) with different potential patient responses. As many, if not all, patients may experience the synergistic benefits afforded by the disclosed combinatorial therapeutic systems/methods as an average benefit, the individual-specific responses may be different.

Entries after “also recorded” stand apart in the source; their conditions may differ.

Take `COc1ccsc1CNCC[C@@]1(c2ccccn2)CCOC2(CCCC2)C1` [oliceridine]: the “patient's amount of pain over time” value was “constant or linear decrease in pain over time; also recorded: cyclical decrease and increase in pain levels over time with an overall decreasing pain level; also recorded: stepwise reduction in pain levels”.
